In assay [1] the target is T1, human PP2A A-C heterodimer (Homo sapiens, UniProt P67775).
T1 construct: purified PP2A A-C dimer purified from human red blood cells; purchased Upstate 14-111 (lot #28002); host or cells: human red blood cells (native purification)
It counts as biochemical. How it is done: In initial assays a chemical substrate of phosphatase enzymatic action, para-nitrophennylphosphate (pNPP) was used, which following hydrolysis of the phosphate moiety generates para-nitrophenol, an intensely yellow chromogen which is soluble under alkaline conditions. […] Absorbance of each sample was measured in duplicate at 405 nm with 590 nm as a reference. PP2A activity was calculated using the following equation: activity=(sample vol in liters)×A405/1.78×104M^−1 cm^−1 (extinction coefficient)×0.25 cm×15 minutes×0.05 U enzyme Data is presented as mean relative phosphatase activity ±SEM from at least three independent experiments.
Para-nitrophennylphosphate (PNPP) is a chemical substrate of phosphatase enzymes, which following hydrolysis of the phosphate moiety generates para-nitrophenol, an intensely yellow chromogen, soluble under alkaline conditions. In assays measuring relative phosphatase activity, 0.05 U of purified PP2A was mixed with 5 μl of 40 mM NiCl2 and 5 μl of BSA solution (5 mg/ml) in a microcentrifuge tube. Various treatments were added as indicated, and the volume adjusted to 80 μl with pNPP assay buffer. Samples were pre-incubated at 37° C. for 15 min. pNPP substrate was freshly prepared before each assay by dissolving 1.5 mg/ml pNPP in 50 mM Tris-HCl, pH 7.0. To start the phosphatase reaction, 120 μl of pNPP substrate was added, and samples incubated for a further 15 min at 37° C. Absorbance of each sample was measured in duplicate at 405 nm with 590 nm as a reference. PP2A activity was calculated using the following equation: activity=(Sample volume in liters)×A405/1.78×10^4M^−1cm^−1 (Extinction coefficient)×0.25 cm×15 min×0.05 U enzyme.

The target of assay [2] is T2, purified human PP2A A-C dimer (Homo sapiens, UniProt P67775).
T2 construct: purified PP2A A-C dimer purified from human red blood cells; purchased Upstate 14-111 (lot #28002); host or cells: human red blood cells (native purification)
Put plainly: Free sulfhydryl groups in purified PP2A (Ellman's assay). It counts as biochemical. The following applies: 15 min at 37° C. The source says: Inactivating reversible oxidation of protein phosphatases involves the modification of a critical cysteine residue within the catalytic domain, ultimately leading to the formation of either intramolecular disulphide or sulphenyl-amide bonds. […] Ellman's reagent (5,5′-Dithio-bis(2-nitrobenzoic acid), DTNB) rapidly forms a disulphide bond with free sulfhydryl groups with the release of chromogenic thiolate ions. […] The quantity of free sulfhydryl groups present within the phosphatase was then determined by the addition of Ellman's reagent and subsequent measurement of absorbance at 412 nm (FIG. 5C).
The change in free sulfhydryl groups in purified PP2A following various treatments was determined using Ellman's Reagent. To 0.01 U of PP2A was added to 37.5 μl of dilution buffer (30 mM Tris-HCl, 3 mM EDTA, pH 8.2), 12.5 μl DTNB reagent (Ellman's reagent) and 200 μl of methanol. Samples were incubated for 5 min at RT, and then extinction measured in duplicate for each at 412 nm.
On the technique in general: Ellman's reagent forms a yellow product with free thiols.

The target in assay [3] is T3, PP2A (Homo sapiens, UniProt P67775).
T3 construct: the phosphatase activity of the general pool of intracellular PP2A; endogenous in cells; host or cells: PC3 prostate carcinoma cells
The experiment in a line: PP2A immunoprecipitation from treated PC3 cells and phosphatase assay. It counts as cell-based. The note with it: PC3 cells treated 1 hour; sodium selenate 500 μM, endothall A 100 μM.
Experimental: Free phosphate was removed by passing cell lysates through desalting columns, and measured phosphatase activity using a phosphor-serine peptide and malachite green.
1×10^6 PC3 cells were plated in 60 mm plates and allowed attach for 8 h, then serum starved over night. Following various treatments as indicated, the media was aspirated and cells washed once with TBS. Cells were lysed in 0.3 ml of lysis buffer (20 mM Tris-HCl, pH 7.0, 1% Igepal-CA, 2 mM EDTA, 2 mM EGTA, 1× Complete Protease Inhibitor Cocktail) and phosphates removed by passing the lysate through a 2 ml Zeba Desalt Spin Column (Pierce #89890). Protein concentration of the desalted lysate was determined by the BCA assay as previously described. 100-150 μg of total protein was immunoprecipitated with 4 μg of anti-PP2A monoclonal antibody and 30 μl of Protein A-sepharose slurry at 4° C. for 2 h. Samples were then pelleted at 14,000 rpm for 1 min, washed three times in excess TBS and once with pNPP assay buffer. After the final spin all of the supernatant was carefully removed and 500 μM of phosphor-threonine peptide in a final volume of 80 μl added to the beads. Samples were incubated at 30° C. for 10 min with agitation, and the reaction terminated by the addition of malachite green solution. Absorbance was read at 590 nm for each sample in duplicate.

Assay [4] relates to p70S6K. The class given is cell-based, human. The note with it: PC3 cells; LY294002 50 μM 1 hour, sodium selenate 500 μM 1 hour, okadaic acid 500 nM. How it is done: 5×10^5 PC3 prostate carcinoma cells were plated per well of a 6-well plate, allowed to attach for 8 hours, then serum starved overnight. […] Equal amounts of whole cell lysates (75 μg) were resolved by SDS-PAGE, and the level of p70S6K phosphorylation determined by immunoblot analysis with an antibody that specifically recognizes the p70S6K protein when phosphorylated on Thr389. Comparison is made with the protein loading control β tubulin.

For assay [5], the system named is PHF-Tau. The note with it: 100 μM, 3 hours. How it is done: In Vitro: 2×10^5 SY5Y or BE2M17 cells were plated to each well in a Falcon 6-well plate, either over coated or uncoated surfaces, and were allowed to attached overnight at 5% CO2/37° C. in complete growth medium (as described above). […] Cells were cultured over Falcon 6-well plates with surfaces coated either with 0.1% gelatin (Sigma, St Louis, Mo., USA), matrigel (cat #354234, BD, NSW, Australia) or 0.5 μg/ml fibronectin (Sigma, St Louis, Mo., USA).
Lysates preparation and Immunoblotting: Cells were washed twice in cold PBS and were lysed in 150 μl of cold RIPA buffer (containing 10% glycerol, 20 mM Tris, 137 mM NaCl, 0.1% SDS, 0.05% IGEPAL, 1% Triton X-100, 2 mM EDTA, 10% NaV, 2% NaF and 4× protease inhibitor), similarly, brain tissues were homogenised in dry ice using mortar and pestle, and lysed in 150 μl RIPA buffer. Samples were incubated on ice for 30 minutes, followed by centrifugation at 13000 rpm/ 10 minutes/ 4° C. Supernantant was collected and protein estimation was calculated for each sample by using BCA reagent (Sigma). Equal amounts of protein were loaded into each lane of a 10% SDS-polyacrylamide gel. The proteins were transferred onto PVDF (Millipore) membranes and were blocked with 5% skim milk blotto for 2 hours. After blocking the membrane, primary antibodies: either anti-human PHF-Tau (AT100 at 1:200, AT180 at 1:1000, and AT270 at 1:2500) or anti-human Tau (HT-7 at 1:1000) were incubated overnight at 4° C. in 5% skim milk blotto. Prior to secondary antibody incubation, membranes were rinsed 3× followed by 3×5 minutes washed in Tris-Buffered Saline with 0.01% Tween at room temperature. Followed by 1 hour incubation of secondary antibody polyclonal goat anti-mouse (Dako, Denmark) coupled to horse radish peroxidase (HRP) at 1:10000 dilutions in 5% skim milk blotto/room temperature. Membranes were washed as described above and were detected by using Amersham ECL western blotting detection reagent (Amersham Bioscience, Buckinghamshire, UK). Membranes were stripped using 2% SDS/β-Mercaptoethanol stripping buffer and reprobed for tubulin (Promega) to confirm protein loading.

In assay [6] the target is phosphatase activity associated with immunoprecipitated Akt protein (PP2A) (Homo sapiens, UniProt P67775). The note with it: PC3 cells, 500 μM, 1 h.
Experimental: 2×10^6 PC3 cells were plated in 10 cm plates, allowed to attach for 8 hours, and then serum starved over night. […] 500-600 μg of total protein was then immunoprecipitated with anti-Akt (1:100) monoclonal antibody and 30 μl of Protein A slurry, and after washing, checked for free phosphate contamination by incubation of 25 μl of final wash buffer with Malachite Green. Immunoprecipitates were assayed for phosphatase activity by incubation with 500 μM synthetic phospho-threonine peptide for 10 min at 30° C. with agitation. Free phosphate was detected by the addition of malachite green solution, and absorbance was read at 590 nm, for each sample in duplicate.
The mark [7] stands for this setting: BE2M17 cells on fibronectin, plastic (uncoated) and matrigel.

“Also recorded” adds a separate entry of the source.

T2 sequence (P67775 whole entry): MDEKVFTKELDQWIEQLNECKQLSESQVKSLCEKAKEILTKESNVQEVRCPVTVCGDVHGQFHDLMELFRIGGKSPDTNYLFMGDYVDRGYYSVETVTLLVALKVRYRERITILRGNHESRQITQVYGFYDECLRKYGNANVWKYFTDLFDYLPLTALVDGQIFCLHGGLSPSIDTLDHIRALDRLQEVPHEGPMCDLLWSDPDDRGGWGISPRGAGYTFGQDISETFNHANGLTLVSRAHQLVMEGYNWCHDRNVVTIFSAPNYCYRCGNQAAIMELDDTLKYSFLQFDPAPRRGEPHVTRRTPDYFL
T2 sequence (P30153 2-589 partner limits assumed): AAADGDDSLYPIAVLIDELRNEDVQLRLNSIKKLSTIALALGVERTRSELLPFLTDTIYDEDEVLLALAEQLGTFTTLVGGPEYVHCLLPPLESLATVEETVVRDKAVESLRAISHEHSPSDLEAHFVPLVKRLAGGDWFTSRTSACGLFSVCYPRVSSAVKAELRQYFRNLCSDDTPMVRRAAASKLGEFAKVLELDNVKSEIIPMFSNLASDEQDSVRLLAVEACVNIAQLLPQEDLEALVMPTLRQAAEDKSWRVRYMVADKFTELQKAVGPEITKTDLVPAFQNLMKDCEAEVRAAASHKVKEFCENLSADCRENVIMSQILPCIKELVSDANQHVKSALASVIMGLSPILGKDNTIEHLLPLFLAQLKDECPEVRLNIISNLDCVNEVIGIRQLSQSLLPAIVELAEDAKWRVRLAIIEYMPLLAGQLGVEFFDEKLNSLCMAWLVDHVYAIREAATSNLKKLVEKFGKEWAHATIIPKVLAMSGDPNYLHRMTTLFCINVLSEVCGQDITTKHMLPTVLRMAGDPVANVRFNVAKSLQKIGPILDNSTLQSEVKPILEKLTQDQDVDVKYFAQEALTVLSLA
T1 sequence (P67775 whole entry): as the sequence (P67775 whole entry) above
T1 sequence (P30153 2-589 partner limits assumed): as the sequence (P30153 2-589 partner limits assumed) above
T3 sequence (P67775 whole entry): as the sequence (P67775 whole entry) above
T3 sequence (P30153 2-589 partner limits assumed): as the sequence (P30153 2-589 partner limits assumed) above
Chain of phosphatase activity associated with immunoprecipitated Akt protein (PP2A) (P67775 whole entry): as the sequence (P67775 whole entry) above
Chain of phosphatase activity associated with immunoprecipitated Akt protein (PP2A) (P30153 2-589, further chain): as the sequence (P30153 2-589 partner limits assumed) above

Consider `O=[Se](=O)(O)O` [sodium selenate], for which, in assay [1] (5 mM of each selenium compound), the “PP2A phosphatase activity, pNPP as substrate” value is on record as “clear boost in phosphatase activity”. Also, the “PP2A phosphatase activity (pNPP)” value in assay [1] (0.05 U PP2A dimer, 30 min at 37° C., sodium selenate 5 mM, okadaic acid 500 nM) is reported as “nearly tripled”. Besides, the “number of free sulfhydryl groups in PP2A” value in assay [2] (0.01 U PP2A, 10 mM of each agent) is “has no effect”. Further, in assay [2] (sodium selenate 10 mM and hydrogen peroxide 10 mM), the “hydrogen peroxide mediated modification of PP2A sulfhydryl groups in the presence of sodium selenate” value is listed as “did not protect PP2A from hydrogen peroxide mediated modification of sulfhydryl groups; also recorded: significantly more efficient in the presence of sodium selenate”. Further, the “phosphatase activity of immunoprecipitated PP2A (general intracellular pool)” value in assay [3] is recorded as “had no effect”. Besides, the “p70S6K phosphorylation on Thr389” value in assay [4] is given as “unaffected”. Also, in assay [5] (BE2M17 cells on fibronectin and matrigel), the “PHF-Tau signal, clone AT100 (68 kDa)” value is “PHF-Tau signal appeared to be reduced”. Moreover, in assay [5] (BE2M17 cells on fibronectin), the “Tau expression, clone HT-7 (68, 64, 57 kDa)” value is “appeared to reduce Tau expression”. In addition, in assay [5] (setting [7]), the “PHF-Tau signal, clone AT180 (71 and 67 kDa)” value is “weaker PHF-Tau signal”; the “PHF-Tau signal, clone AT270 (66 and 63 kDa)” value is listed as “weaker PHF-Tau signal”. In assay [5] (BE2M17 cells on matrigel), the “PHF-Tau signal, clone AT270, cells on matrigel” value was “only a slight difference between selenate treated and non-treated cells”. Besides, the “anti-Tau signal, clone HT-7 (60 kDa)” value in assay [5] (SY5Y cells on fibronectin) was “weaker signal for anti-Tau”. In assay [5] (SY5Y cells on gelatin and fibronectin), the “PHF-Tau signal, clone AT270 (70 kDa)” value is “weaker PHF-Tau signal”. Also, in assay [6], the “phosphatase activity associated with immunoprecipitated Akt protein” value is listed as “more than doubled”.

The values are drawn from US8920851B2, “Treatment of neurodegenerative diseases” (Velacor Therapeutics Pty Ltd, priority 2006, dated 2014).
